According to publication PMC4729137, “Functional analysis of androgen receptor mutations that confer anti-androgen resistance identified in circulating cell-free DNA from prostate cancer patients” (Genome Biology, 2016):
Residue numbers refer to the chain shown, from its start. Entries after “also recorded” stand apart in the source; their conditions may differ.

How the values were obtained:
[1] = biological target: T1, L882I-AR (Homo sapiens, UniProt P10275, L882I); experiment: cell-based
T1 sequence (P10275 1-920 L882I): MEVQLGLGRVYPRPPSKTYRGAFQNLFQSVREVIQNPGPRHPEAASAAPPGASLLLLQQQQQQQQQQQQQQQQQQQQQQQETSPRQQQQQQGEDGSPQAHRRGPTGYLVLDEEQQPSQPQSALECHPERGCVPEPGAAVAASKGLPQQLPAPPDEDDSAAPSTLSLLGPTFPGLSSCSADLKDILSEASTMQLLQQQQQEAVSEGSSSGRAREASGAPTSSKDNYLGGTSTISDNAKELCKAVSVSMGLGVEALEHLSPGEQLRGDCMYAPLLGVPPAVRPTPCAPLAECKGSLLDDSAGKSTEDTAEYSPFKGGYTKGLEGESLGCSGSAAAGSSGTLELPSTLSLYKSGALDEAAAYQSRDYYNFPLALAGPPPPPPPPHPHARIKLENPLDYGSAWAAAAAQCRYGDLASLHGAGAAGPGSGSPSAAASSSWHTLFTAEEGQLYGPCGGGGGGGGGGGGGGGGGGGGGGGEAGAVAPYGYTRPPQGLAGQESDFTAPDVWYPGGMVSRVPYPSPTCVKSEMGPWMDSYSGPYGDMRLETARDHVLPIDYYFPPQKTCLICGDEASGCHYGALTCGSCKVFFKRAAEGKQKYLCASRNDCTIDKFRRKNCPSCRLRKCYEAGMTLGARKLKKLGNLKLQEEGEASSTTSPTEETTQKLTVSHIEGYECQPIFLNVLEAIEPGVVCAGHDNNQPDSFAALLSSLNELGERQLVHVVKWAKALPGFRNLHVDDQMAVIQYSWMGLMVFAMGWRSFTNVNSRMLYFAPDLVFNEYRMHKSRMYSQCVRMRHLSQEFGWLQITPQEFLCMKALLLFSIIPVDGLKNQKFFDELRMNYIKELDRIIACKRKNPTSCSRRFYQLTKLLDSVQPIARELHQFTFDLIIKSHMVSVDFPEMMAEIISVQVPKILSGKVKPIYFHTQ

[2] = biological target: T2, WT-AR (Homo sapiens, UniProt P10275); settings: concentrations up to 500 nM
T2 sequence (P10275 1-920): T1 sequence (P10275 1-920 L882I) with I882L

[3] = biological target: T3, M896T-AR (Homo sapiens, UniProt P10275, M896T); experiment: cell-based
T3 sequence (P10275 1-920 M896T): T1 sequence (P10275 1-920 L882I) with I882L, M896T

SMILES: C[C@]12CCC(=O)C=C1CC[C@@H]1[C@@H]2[C@@H](O)C[C@@]2(C)[C@H]1CC[C@]2(O)C(=O)CO [hydrocortisone]
- EC50 [1]: > 500 nM
- Transcriptional activation of wild-type AR (in words) [2]: not activated; also recorded: did not exhibit any significant transcriptional activation
- EC50 [3]: > 500 nM
